Measurements published in patent US20200306244A1, “WNT INHIBITORS FOR USE IN THE TREATMENT OF FIBROSIS” (NOVARTIS AG, priority 2016, published 2020).
One block for each molecule: values may come before it.

Columns and labels:
[1] = test system: primary kidney fibroblasts; conditions: Madan et al. 2016; cited from earlier work
[2] = test system: bleomycin-induced skin fibrosis; assay: Bleomycin-induced mouse skin fibrosis model, 3 weeks bleomycin then 3 weeks treatment; assay type: in vivo, mouse (female C57/BI6); conditions: for dermal skin thickness: FIG. 1B
Protocol: In the bleomycin model (FIG. 1 (A-E) and FIG. 2 (A-B)), fibrosis was induced in 6-week-old female C57/BI6 mice (Charles River, Sulzfeld, Germany) by injection of 100 μL 0.5 mg/ml bleomycin into a defined skin area of 1 cm' between the shoulders at the back every other day for up to six weeks. Control mice were injected with 0.9% NaCl, the solvent of bleomycin. Another group of mice received bleomycin injections for 3 weeks followed by saline (NaCl) injections for the next 3 weeks to control for spontaneous regression of fibrosis. Animals were treated with or without compound of formula (I′) at multiple dose levels twice daily for indicated weeks using suspension formulation containing 0.5% methylcellulose and 0.5% tween 80. Each group of mice were killed and the skin sections analyzed.
(§1) The anti-fibrotic effects of compound of Formula (I′) on experimental skin fibrosis was evaluated by quantification of dermal or hypodermal thickening, respectively, analyses of myofibroblast counts and assessment of hydroxyproline content. Tissue samples were fixed in 10% phosphate-buffered formalin for 24 hours, then embedded in paraffin and cut into […] sections. The slides were stained with hematoxylin and eosin for better visualization of the tissue structure.
(§2) The hydroxyproline content was measured according to the method as described in hydroxyproline content (Woessner J. F. Arch. Biochem. Biophys. […], 93, 440-447).
(§3) The dermal thickness was analyzed with a microscope by measuring the maximal distance between the epidermal-dermal junction and the dermal-subcutaneous fat junction at 4 different skin sections in each mouse.
(§4) For quantification of myofibroblasts, skin sections were deparaffinized and incubated with 5% bovine serum albumin for 60 minutes. Cells positive for α-smooth muscle actin (α-SMA) were detected by incubation with monoclonal anti-α-SMA antibodies (clone 1A4; Sigma-Aldrich, Steinheim, Germany) for 2 hours at room temperature followed by incubation with 3% hydrogen peroxide for 10 minutes. […] antibodies labeled with horseradish peroxidase were used as secondary antibodies. The expression of α-SMA was visualized with 3,3′-diaminobenzidine tetrahydrochloride. Monoclonal mouse IgG antibodies were used as controls
Porcupine Inhibitor Compound of Formula (I′) in the Bleomycin-Induced Mouse Fibrosis Model To test compound of formula (I′) for anti-fibrotic effects, bleomycin was injected in 6-week-old female C57/BI6 mice for 3 weeks to induce fibrosis (FIG. 1A). The control group was injected with saline. The bleomycin treated animals were further dosed with or without compound of formula (I′) b.i.d. for another 3 weeks. […] Similar observations have been obtained when examining the hydroxyproline content and myofibroblast count of mouse skin samples as shown in FIG. 1C and FIG. 1D.

[3] = Plasma exposure after last oral dose in Tsk-1 model; assay type: in vivo, mouse (Tsk-1); conditions: FIG. 3E
Protocol: (§5) The plasma concentrations of compound of formula (I′) were determined by a liquid chromatography-tandem mass spectrometry (LC/MS/MS) assay. Briefly, mouse plasma samples were extracted with a methanol-acetonitrile mixture (3:1, v/v). Supernatant was injected onto HPLC system with a Waters Atlantis T3 analytical column (2.1×30 mm, 3.5 μm, Waters Corp., Milford, Mass., USA). The mobile phases consisted of 0.1% formic acid in water (solvent A) and 0.1% formic acid in acetonitrile (solvent B), and a gradient elution method (0-1.5 min, 10% B to 95% B; 1.5-2.0 min, 95% B; 2.01 min, 10% B) at flow rate of 800 μL/min was employed for chromatographic separation. […] Multiple reaction monitoring (MRM) of compound of formula (I′) and internal standard was used for quantitative measurements, and peak integration was performed using Analyst™ 1.4 software. […] Pharmacokinetic parameters were calculated by non-compartmental regression analysis using an in house fitting program.
Similar to that described for the bleomycin-induced mouse fibrosis model, plasma exposures of compound of formula (I′) in this tight skin model were also determined following the last oral dose, and PK data are shown in FIG. 3E.

Tsk-1 mice fibrosis = assay: Tight skin (Tsk-1) mouse genetic fibrosis model; assay type: in vivo, mouse (Tsk-1); conditions: for skin thickness: FIG. 3B; for myofibroblast count: FIG. 3D; for anti-fibrotic effects: Tsk-1 model
Protocol: In the Tsk-1 model (FIG. 3(A-F)), treatment with compound of formula (I′) was started at the age of 5 weeks and was continued for 5 weeks. Animals were treated with or without compound of formula (I′) at multiple dose levels twice daily using suspension formulation containing 0.5% methylcellulose and 0.5% tween 80.
as §1, §2, §3
The Hypodermal thickness in TSK-1 mice was determined by measuring the thickness of the subcutaneous connective tissue beneath the panniculus carnosus at 4 different sites of the upper back in each mouse. The evaluation was performed by 2 independent examiners.
as §4
To further test the anti-fibrotic effects of compound of formula (I′), we turned to a mouse genetic fibrosis model, the tight skin model (Tsk-1). Tsk-1 mice contain a spontaneous duplication mutation of fibrillin-1 gene, which leads to activation of TGFβ signaling, and the subsequent fibrosis (increased in dermal and hypodermal thickness).
Five week old wild type or Tsk-1 mice were treated with or without compound of formula (I′) b.i.d. for 5 weeks (FIG. 3A).

[4] = Plasma exposure after last oral dose in bleomycin model (C57/BI6); assay type: in vivo, mouse (female C57/BI6); conditions: FIG. 1E
Protocol: The plasma concentrations of compound of formula (I′) were determined by a liquid chromatography-tandem mass spectrometry (LC/MS/MS) assay. Briefly, mouse plasma samples were extracted with a methanol-acetonitrile mixture (3:1, v/v). Supernatant was injected onto HPLC system with a Waters Atlantis T3 analytical column (2.1×30 mm, 3.5 μm, Waters Corp., Milford, Mass., USA). The mobile phases consisted of 0.1% formic acid in water (solvent A) and 0.1% formic acid in acetonitrile (solvent B), and a gradient elution method (0-1.5 min, 10% B to 95% B; 1.5-2.0 min, 95% B; 2.01 min, 10% B) at flow rate of 800 μL/min was employed for chromatographic separation. Mass spectrometric analysis was performed on a SCIEX API-4000 triple quadruple mass spectrometer (Applied Biosystems, Foster City, Calif., USA) using atmospheric pressure chemical ionization (APCI) in the positive ion mode. Multiple reaction monitoring (MRM) of compound of formula (I′) and internal standard was used for quantitative measurements, and peak integration was performed using Analyst™ 1.4 software. The lower limit of detection for the assay was 1 ng/mL. Pharmacokinetic parameters were calculated by non-compartmental regression analysis using an in house fitting program.

[5] = test system: Wnt pathway target gene Axin2 mRNA; assay: Axin2 mRNA expression in skin tissue of bleomycin-treated Balb/C mice (qRT-PCR/TaqMan); assay type: in vivo, mouse (Balb/C); conditions: 5 mg/kg b.i.d. oral 3 weeks, tissue 7 hour after last dose, Gapdh internal control; FIG. 2B
Protocol: Total RNA was isolated from tissue samples and processed to perform quantitative RT-PCR analysis of […] mRNA expression, with Gapdh serving as an internal control according to the manufacturer's instructions, as previously described.
Data were analyzed with SDS 2.0 software (Applied Biosystems), statistical analysis was conducted using PRISM.
(§6) In a separate study to confirm the on-target activity of compound of formula (I′) in a mouse fibrosis model, bleomycin was injected in Balb/C mice, with or without orally dosed compound of formula (I′) at 5 mg/kg b.i.d. for 3 weeks. Blood samples at multiple time points after the last dose were collected. […] Tissue samples were collected 7 hour after the last dose, and the Wnt pathway target gene Axin2 mRNA expression level was measured with qRT-PCR, with the housekeeping gene, Gapdh, as an internal control.

[6] = test system: bleomycin-induced skin fibrosis; assay: Bleomycin mouse fibrosis model in Balb/C mice, skin thickness (FIG. 4); assay type: in vivo
Protocol: To test compound of formula (I′) and compound of formula (I″) in a mouse fibrosis model, bleomycin was injected in Balb/C mice, with or without orally dosed compound of formula (I′) (5 mg/kg b.i.d.) and compound of formula (I″) (1 mg/kg b.i.d.) for 3 weeks. Skin tissue samples were taken at the end of the study and embedded in paraffin and skin thickness was measured (FIG. 4). Furthermore, the bleomycin treated animals were treated with or without orally dosed compound of formula (I′) at a dose of 5 mg/kg b.i.d. and compound of formula (I″) at a dose of 1 mg/kg b.i.d. for three weeks.

[7] = PK analysis of blood samples after last dose in bleomycin-treated Balb/C mice; assay type: in vivo, mouse (Balb/C); conditions: 5 mg/kg b.i.d. oral for 3 weeks; FIG. 2A
Protocol: as §5
as §6, with “weeks.” for “weeks. Blood samples at multiple time points after the last dose were collected.”

skin fibrosis markers = conditions: clinical trial; Rice et al. 2015; cited from earlier work
[8] = all dose levels (2.5, 5, 10 mg/kg) b.i.d. for 5 weeks

Molecule: Cc1cc(-c2ccc(CC(=O)Nc3ccc(-c4cccnc4)cc3)cc2)ccn1 [C59]
TGFβ-induced Axing induction [1]: could abrogate TGFβ-induced Axing induction

oral bioavailability [7]: good oral bioavailability
Molecule: CC(=O)N1CCN(c2ccc(NC(=O)Cc3cnc(-c4ccnc(F)c4)c(C)c3)nc2)CC1 [compound of formula (I′), N-(5-(4-acetylpiperazin-1-yl)pyridin-2-yl)-2-(2′-fluoro-3-methyl-[2,4′-bipyridin]-5-yl)acetamide]
dermal skin thickness ([2]; 5 mg/kg and 10 mg/kg groups, oral b.i.d. 3 weeks): reduced the skin thickness to levels lower than the baseline
fibrosis reversal (hydroxyproline content and myofibroblast count) ([2]; 5 and 10 mg/kg groups): strong evidence of fibrosis reversal
dermal skin thickness ([2]; all dose levels (2.5, 5, 10 mg/kg) oral b.i.d. for 3 weeks after 3 weeks bleomycin): reduced dermal skin thickness at all dose levels in a dose dependent manner
hydroxyproline content ([2]; all dose levels (2.5, 5, 10 mg/kg) oral b.i.d., FIG. 1C): to levels lower than the baseline and closer to the control group
myofibroblast count ([2]; all dose levels (2.5, 5, 10 mg/kg) oral b.i.d., FIG. 1D): to levels lower than the baseline and closer to the control group
plasma exposures compared with bleomycin model ([3]; after last oral dose): comparable between the two separate experiments
plasma exposures, dose proportionality ([3]; from […] to 10 mg/kg): increased approximately dose proportionally
skin thickness (Tsk-1 mice fibrosis; 5 and 10 mg/kg groups): reduced to levels lower than the baseline and closer to the control group
myofibroblast count (Tsk-1 mice fibrosis; 5 and 10 mg/kg groups): reduction of the myofibroblast count towards control level
hypodermal skin thickness (Tsk-1 mice fibrosis; H&E staining of mouse skin samples, FIG. 3F): significantly reduced hypodermal skin thickness
anti-fibrotic effects (Tsk-1 mice fibrosis): robust anti-fibrotic effects
skin thickness (Tsk-1 mice fibrosis; [8]): significant anti-fibrotic effects at all dose levels
hydroxyproline content (Tsk-1 mice fibrosis; all dose levels (2.5, 5, 10 mg/kg) b.i.d. for 5 weeks, FIG. 3C): significant anti-fibrotic effects at all dose levels
myofibroblast count (Tsk-1 mice fibrosis; [8]): significant anti-fibrotic effects at all dose levels
absorption and oral exposure ([4]; after last oral dose, 2.5-10 mg/kg b.i.d.): highly absorbed and showed high oral exposures
plasma exposures, dose proportionality ([4]; from […] to 10 mg/kg): increased approximately dose proportionally
reduction of Axin2 mRNA expression [5]: 54%
dermal skin thickness ([6]; 5 mg/kg b.i.d. oral for three weeks): induce the reduction of dermal skin thickness

Molecule: Cc1cc(-c2ncc(CC(=O)Nc3ccc(-c4cnccn4)cn3)cc2C)ccn1 [compound of formula (I″), 2-(2′,3-dimethyl-[2,4′-bipyridin]-5-yl)-N-(5-(pyrazin-2-yl)pyridin-2-yl)acetamide]
anti-fibrotic effects (Tsk-1 mice fibrosis): robust anti-fibrotic effects
dermal skin thickness ([6]; 1 mg/kg b.i.d. oral for three weeks): induce the reduction of dermal skin thickness
in vivo activity compared to compound of Formula (I′) ([6]; 1 mg/kg b.i.d. vs 5 mg/kg b.i.d.): showed even better in vivo activities

Molecule: Fresolimumab: anti-TGFβ antibody
skin fibrosis markers (skin fibrosis markers): Reduction of the skin fibrosis markers has been observed
